In patent US8992945B2, “Supramacromolecular polymer complexes providing controlled nitric oxide release for healing wounds” (University of Toronto, priority 2007, dated 2015):

How the values were obtained:
[1] = Kinetics of NO decomposition from RSNOs in aqueous medium (UV-Vis absorbance at 545 nm); type: physicochemical; conditions: for NO decomposition rate (order of decay slopes): 0.1 N HCl, 22° C., similar initial solution concentrations, FIG. 5
Experimental: In this invention, GSHEE and phytochelatin are being used for the first time as NO donors. […] Their stability in aqueous medium was explored using the UV-Vis Spectrophotometer. Solutions of all RSNOs for this stability study were synthesized according to Example 1. Their decomposition kinetics in these solutions at room temperature was obtained from the time dependent absorbance changes at 545 nm in time intervals of 10 min.
A good linearity is obtained for all three curves, from the decay slopes, it can be seen that NO decomposition rate decreases in the order of GSNO>S-Nitroso-GSHEE>S-nitroso-PC5.

[2] = NO endogenously synthesized by vascular endothelial cells; cited from earlier work

| NO decomposition rate (order of decay slopes) [1] | NO dissociation from GSNO ([1]; acidic and neutral medium, room condition (22° C.), FIG. 1) | SMILES | biological half life [2] [sec] |
| --- | --- | --- | --- |
| GSNO>S-Nitroso-GSHEE>S-nitroso-PC5 | – | CCOC(=O)CNC(=O)C(CSN=O)NC(=O)CCC(N)C(=O)O (stereo not shown) [S-Nitroso-GSHEE] | – |
| – | – | [N]=O [NO, nitric oxide] | ≤ 5 |
| GSNO>S-Nitroso-GSHEE>S-nitroso-PC5 | continuously dissociates | N[C@@H](CCC(=O)N[C@@H](CSN=O)C(=O)NCC(=O)O)C(=O)O [GSNO, S-nitrosoglutathione] | – |
